From US20170050939A1, “SMALL MOLECULE INHIBITORS OF G PROTEIN COUPLED RECEPTOR 6 KINASE POLYPEPTIDES” (Mayo Foundation for Medical Education and Research, priority 2014, published 2017) come the findings set out here.

The target of the assay is T1, GRK6, recombinant full-length GST-tagged human protein (Homo sapiens, UniProt P43250).
T1 construct: GRK6, recombinant full-length GST-tagged human protein; GST
As to the kind of experiment: GRK6 IC50 determination (8-point concentration-response). Format: biochemical. An excerpt: Two hundred forty compounds were further characterized by determining IC50 values in a GRK6 assay. This screen has been previously described in WO 2013/063458, which is incorporated by reference in its entirety herein.

[1] abbreviates: 20 nM GRK6, 12 μM ATP (Km), 1 μM Peptide 216, 7 h incubation.

SMILES strings stand for the structures. pIC50: −log10 of the molar value. Where two headings read alike, the source gives them in different places. A value given as a limit tells only on which side of the number the result lay.

T1 sequence (P43250 whole entry): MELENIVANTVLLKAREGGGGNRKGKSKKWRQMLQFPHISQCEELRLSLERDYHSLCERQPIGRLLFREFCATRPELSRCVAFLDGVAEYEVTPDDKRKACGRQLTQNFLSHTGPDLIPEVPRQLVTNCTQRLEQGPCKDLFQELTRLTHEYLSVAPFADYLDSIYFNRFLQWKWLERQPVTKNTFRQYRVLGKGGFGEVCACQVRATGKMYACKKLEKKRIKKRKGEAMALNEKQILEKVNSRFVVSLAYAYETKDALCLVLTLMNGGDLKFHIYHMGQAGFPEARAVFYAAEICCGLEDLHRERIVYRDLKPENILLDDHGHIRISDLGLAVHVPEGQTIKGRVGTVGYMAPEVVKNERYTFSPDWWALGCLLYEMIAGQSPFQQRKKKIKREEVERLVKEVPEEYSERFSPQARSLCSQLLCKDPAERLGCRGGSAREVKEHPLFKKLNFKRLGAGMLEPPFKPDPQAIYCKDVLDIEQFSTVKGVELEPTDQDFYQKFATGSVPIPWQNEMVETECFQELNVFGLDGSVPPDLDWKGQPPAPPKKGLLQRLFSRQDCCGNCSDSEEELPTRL

A word on the pIC50: it is −log10 of the IC50, conventionally taken in molar units. Regarding `O=C(O)CSc1nnc(-c2cc(-c3ccc4c(c3)[nH]c3ccccc34)cc([N+](=O)[O-])c2)[nH]1` [Compound 240], the pIC50 is 6.03.
The same measure, in the same setting: the value for `Cc1c(-c2cc(-c3nnc(SCC(=O)O)[nH]3)cc([N+](=O)[O-])c2)ccc2[nH]c(C#N)cc12` [Compound 236] was 6.40.
Still for that read-out and setting: the value for `COc1cc(-c2nnc(SCC(=O)O)[nH]2)cc2c1OCO2` [Compound 108] was 5.46.
Still for that read-out and setting: the same measure for `O=C(O)CSc1nnc(-c2cccc(C(=O)Nc3ccc4cn[nH]c4c3)c2)[nH]1` [Compound 130]: 5.16.
Consider `O=C(O)CSc1nnc(-c2cc(Br)ccc2O)[nH]1` [Compound 89], for which the pIC50 under setting [1] is 5.98.
`O=C(O)CS(=O)(=O)c1nnc(-c2ccccc2)[nH]1` [Compound 210]: the pIC50 was under 4.00.
As for `O=C(O)CSc1nnc(-c2cccc(-c3cnccn3)c2)[nH]1` [Compound 126], the pIC50 under setting [1] is 5.19.
As to `CCn1ccc2cc(-c3cc(-c4nnc(SCC(=O)O)[nH]4)cc([N+](=O)[O-])c3)ccc21` [Compound 11], the pIC50 is 6.93.
For the compound `Cc1ccc(-c2cc(-c3ccc4ccccc4c3)cc(-c3nnc(SCC(=O)O)[nH]3)c2)o1` [Compound 63], the pIC50 is 6.08.
Same read-out and setting: the value for `Cn1cc(Cl)c2cc(-c3cc(-c4n[nH]c(SCC(=O)O)n4)cc([N+](=O)[O-])c3)ccc21` [Compound 227] was 7.22; that for `Cc1ccc2cc(-c3cc(-c4nnc(SCC(=O)O)[nH]4)cc([N+](=O)[O-])c3)ccc2c1` [Compound 238] was 6.35.
Regarding `CCN(CC)c1ccc(-c2nnc(SCC(=O)O)[nH]2)c(O)c1` [Compound 173], the negative logarithm of the IC50 (pIC50) under setting [1] was 4.59.
Same read-out and setting: the value for `O=C(O)CSc1nnc(-c2ccc(-n3ccnc3)cc2)[nH]1` [Compound 132] was 5.13.
For `CS(=O)(=O)c1cccc(-c2cc(-c3nnc(SCC(=O)O)[nH]3)cc([N+](=O)[O-])c2)c1` [Compound 60], the pIC50 was 6.11.
Still for that read-out and setting: the same measure for `COc1cc(-c2nnc(SCC(=O)O)[nH]2)cc(C)c1O` [Compound 103]: 5.48; for `O=C(O)CSc1nnc(-c2cc(-c3cc(Cl)c4ccccc4c3)cc([N+](=O)[O-])c2)[nH]1` [Compound 233]: 6.68; for `O=C(O)CSc1nnc(-c2cc(-c3cccc(-c4cc[nH]n4)c3)cc([N+](=O)[O-])c2)[nH]1` [Compound 7]: 7.03.
The same measure, in the same setting: the same measure for `O=C(O)CSc1nnc(-c2cc(-c3ccc4[nH]ncc4c3)cc([N+](=O)[O-])c2)[nH]1` [Compound 15]: 6.85.
`O=C(O)CSc1nnc(-c2cccc(F)c2O)[nH]1` [Compound 138]: under setting [1], the negative-log IC50 (pIC50) is 5.06.
Consider `O=C(O)CSc1nnc(-c2cc(-c3cn[nH]c3)cc([N+](=O)[O-])c2)[nH]1` [Compound 74], for which the pIC50 is 6.42.
Same read-out and setting: the value for `Cn1ccc2c(-c3cc(-c4nnc(SCC(=O)O)[nH]4)cc([N+](=O)[O-])c3)cccc21` [Compound 16] was 6.85.
Take `C[S+]([O-])c1cccc(-c2nnc(SCC(=O)O)[nH]2)c1` (centres unmarked) [Compound 162]: the pIC50 under setting [1] was 4.76.
Turning to `O=C(O)CSc1nnc(-c2cccc(C(=O)Nc3ccccc3)c2)[nH]1` [Compound 149], the pIC50 is 4.93.
Regarding `CCSc1ccc(-c2nnc(SCC(=O)O)[nH]2)cc1` [Compound 141], the pIC50 under setting [1] is 5.05.
On to `Cc1nn(C)c(C)c1-c1cc(-c2nnc(SCC(=O)O)[nH]2)cc([N+](=O)[O-])c1` [Compound 93], for which the pIC50 is 5.80.
As for `CCCn1ccc2cc(-c3cc(-c4nnc(SCC(=O)O)[nH]4)cc([N+](=O)[O-])c3)ccc21` [Compound 25], the pIC50 was 6.64.
Same read-out and setting: the same measure for `O=C(O)CSc1nnc(-c2cc(-c3ccc4ccccc4c3)cc(-c3cnco3)c2)[nH]1` [Compound 13]: 6.91.
Regarding `CNS(=O)(=O)c1cccc(-c2cc(-c3nnc(SCC(=O)O)[nH]3)cc([N+](=O)[O-])c2)c1` [Compound 49], the pIC50 is 6.29.
On to `COc1cc(F)c(-c2nnc(SCC(=O)O)[nH]2)cc1OC` [Compound 172], for which the pIC50 under setting [1] is 4.63.
`O=C(O)CSc1nnc(-c2cccc(-n3cncn3)c2)[nH]1` [Compound 112]: the pIC50 under setting [1] is 5.35.
Regarding `O=C(O)CSc1nnc(-c2ccc3ccccc3c2)[nH]1` [Compound 85], the pIC50 was 6.05.
The same measure, in the same setting: the value for `CC(=O)Nc1ccc(-c2cc(-c3nnc(SCC(=O)O)[nH]3)cc([N+](=O)[O-])c2)cc1` [Compound 27] was 6.58.
Regarding `Cc1cc(-c2cc(-c3nnc(SCC(=O)O)[nH]3)cc([N+](=O)[O-])c2)cc2ccn(C)c12` [Compound 231], the pIC50 was 6.82.
In the case of `COc1cc(OC)cc(-c2nnc(SCC(=O)O)[nH]2)c1` [Compound 122], the negative logarithm of the IC50 (pIC50) under setting [1] is 5.21.
As for `O=C(O)CSc1nnc(-c2c(O)ccc3ccccc23)[nH]1` [Compound 224], the negative logarithm of the IC50 (pIC50) is under 4.10.
For the compound `O=C(O)CSc1nnc(-c2cc(-c3ccc4ccccc4c3)cc(C3C=NN=C3)c2)[nH]1` [Compound 28], the pIC50 is 6.58.
Still for that read-out and setting: the value for `O=C(O)CSc1nnc(-c2cc(-c3ccncc3)cc(-c3ccc4ccccc4c3)c2)[nH]1` [Compound 69] was 5.73; that for `O=C(O)CSc1nnc(-c2cccc3ccccc23)[nH]1` [Compound 174] was 4.55.
Still for that read-out and setting: the same measure for `O=C(O)CSc1nnc(-c2cccc(C(=O)NCc3ccccc3)c2)[nH]1` [Compound 176]: 4.48; for `CC(=O)Nc1cccc(-c2cc(-c3nnc(SCC(=O)O)[nH]3)cc([N+](=O)[O-])c2)c1` [Compound 42]: 6.37; for `O=C(O)CSc1nnc(-c2cccc(C(=O)Nc3ccccc3Cl)c2)[nH]1` [Compound 186]: 4.32.
Regarding `O=C(O)CSc1nnc(-c2cc(C(=O)O)ccc2F)[nH]1` [Compound 191], the pIC50 under setting [1] was 4.09.
On to `O=C(O)CSc1nnc(-c2cccc(C(=O)Nc3ccc4c(c3)NC(=O)C4)c2)[nH]1` [Compound 105], for which the pIC50 is 5.48.
Regarding `COc1cc(Cl)cc(-c2cccc(-c3nnc(SCC(=O)O)[nH]3)c2)c1` [Compound 41], under setting [1], the pIC50 is 6.37.
On to `Cc1noc(C)c1-c1cc(-c2nnc(SCC(=O)O)[nH]2)cc([N+](=O)[O-])c1` [Compound 91], for which the pIC50 is 5.86.
Take `CC(=O)c1cccc(-c2nnc(SCC(=O)O)[nH]2)c1` [Compound 110]: the pIC50 under setting [1] was 5.39.
Still for that read-out and setting: the value for `COc1ccc(O)c(-c2nnc(SCC(=O)O)[nH]2)c1` [Compound 113] was 5.34.
As to `N#Cc1cc(-c2ccc3ccccc3c2)cc(-c2nnc(SCC(=O)O)[nH]2)c1` [Compound 17], the pIC50 was 6.77.
For the compound `CSc1ccccc1-c1nnc(SCC(=O)O)[nH]1` [Compound 188], the pIC50 under setting [1] was 4.13.
Still for that read-out and setting: the same measure for `CN(C)c1ccc(-c2nnc(SCC(=O)O)[nH]2)c([N+](=O)[O-])c1` [Compound 183]: 4.40.
For `O=C(O)CSc1nnc(-c2cc(-c3cccc4c3oc3ccccc34)cc([N+](=O)[O-])c2)[nH]1` [Compound 237], the pIC50 is 6.36.
`O=C(O)CSc1nnc(-c2ccc(F)c(F)c2)[nH]1` [Compound 106]: under setting [1], the pIC50 is 5.47.
Consider `O=C(O)CSc1nnc(-c2cccc(C(=O)Nc3cccnc3)c2)[nH]1` [Compound 177], for which the pIC50 is 4.47.
In the case of `COC(=O)c1ccc(-c2nnc(SCC(=O)O)[nH]2)cc1` [Compound 142], under setting [1], the pIC50 is 5.02.
On the same count and under the same terms, the value for `O=C(O)CSc1nnc(-c2cccc(N3CCNCC3)c2)[nH]1` [Compound 171] was 4.66.
Regarding `O=C(O)CSc1nnc(-c2cc(C(=O)NCc3ccccc3)cc([N+](=O)[O-])c2)[nH]1` [Compound 94], the pIC50 is 5.80.
As to `COc1ccc(-c2nnc(SCC(=O)O)[nH]2)cc1O` [Compound 152], under setting [1], the pIC50 is 4.88.
As to `O=C(O)CSc1nnc(-c2cccc(C(=O)Nc3cccc(Cl)c3)c2)[nH]1` [Compound 135], the pIC50 was 5.10.
Consider `CC(=O)Nc1cc(-c2ccc3ccccc3c2)cc(-c2nnc(SCC(=O)O)[nH]2)c1` [Compound 35], for which the pIC50 was 6.45.
For the compound `COc1cc(F)cc(-c2nnc(SCC(=O)O)[nH]2)c1` [Compound 98], the pIC50 under setting [1] is 5.58.
Consider `O=C(O)CSc1nc(-c2cc(Br)cc(-c3ccc4ccccc4c3)c2)n[nH]1` [Compound 40], for which the pIC50 was 6.38.
On to `O=C(O)CSc1nnc(-c2ccc(O)c([N+](=O)[O-])c2)[nH]1` [Compound 128], for which, under setting [1], the pIC50 was 5.17.
For the compound `O=C(O)CSc1nnc(-c2cc(C(=O)NCc3ccccn3)cc([N+](=O)[O-])c2)[nH]1` [Compound 111], the pIC50 was 5.36.
Take `COc1ncccc1-c1cc(-c2ccc3ccccc3c2)cc(-c2nnc(SCC(=O)O)[nH]2)c1` [Compound 68]: the pIC50 is 5.80.
For `O=C(O)CSc1nnc(-c2cc(-c3ccc4ncccc4c3)cc([N+](=O)[O-])c2)[nH]1` [Compound 19], the pIC50 is 6.74.
Same read-out and setting: the value for `O=C(O)CSc1nnc(-c2cc(OCc3ccccc3)cc([N+](=O)[O-])c2)[nH]1` [Compound 77] was 6.16.
The same measure, in the same setting: the same measure for `CCn1cc(-c2cc(-c3nnc(SCC(=O)O)[nH]3)cc([N+](=O)[O-])c2)cn1` [Compound 73]: 6.47; for `O=C(O)CSc1nnc(-c2cc(-c3cncc(F)c3)cc(-c3ccc4ccccc4c3)c2)[nH]1` [Compound 55]: 6.20.
On to `O=C(O)CSc1nnc(-c2cccc3c2OCCCO3)[nH]1` [Compound 197], for which the pIC50 is under 4.00.
With `O=C(O)CSc1nnc(-c2cc(-c3ccc(-c4ccn[nH]4)cc3)cc([N+](=O)[O-])c2)[nH]1` [Compound 2], the pIC50 is 7.23.
Still for that read-out and setting: the value for `COc1ccc(NC(=O)c2cccc(-c3nnc(SCC(=O)O)[nH]3)c2)cc1` [Compound 170] was 4.67.
Turning to `COc1cc(-c2nnc(SCC(=O)O)[nH]2)ccc1OC(=O)C1CC1` [Compound 139], the pIC50 under setting [1] is 5.05.
Consider `Cc1cc2cc(-c3cc(-c4nnc(SCC(=O)O)[nH]4)cc([N+](=O)[O-])c3)ccc2n1C` [Compound 234], for which the pIC50 is 6.57.
For `O=C(O)CSc1nnc(-c2ccc(O)c(F)c2)[nH]1` [Compound 131], the negative logarithm of the IC50 (pIC50) under setting [1] was 5.14.
